One data set relates to adenosine deaminase. Particulars: depends on adenosine deaminase; Good and de Miranda 1982; cited from earlier work.
Data set [1] can be described thus: Water solubility at 25° C. In kind it is physicochemical.
The subject of data set [2] is herpes viruses such as herpes simplex. Particulars: cited from earlier work.
The conditions of data set [3]: cited from earlier work.
Data set [4] has as its system bovine milk xanthine oxidase. Kind of data set: Enzymatic conversion of 6-deoxyacyclovir to acyclovir by bovine milk xanthine oxidase (Example 2). Particulars: 24 hours, 43.6 μM substrate, pH 6.8, 25° C, atmospheric oxygen; UV monitoring. In kind it is biochemical. As for the experimental part:
A solution (20 μL) of a purified bovine milk xanthine oxidase containing 1.06 units (nmoles of xanthine oxidized per minute) of activity was added to 500 μL of a solution 43.6 μM with respect to 6-deoxyacyclovir, 0.05M with respect to potassium phosphate and 0.13 mM with respect to ethylenediaminetetraacetic acid at pH 6.8 and 25° C. The reaction mixture was equilibrated with atmospheric oxygen, and the oxygen served as the electron acceptor. […] The indentity of acyclovir as the product of the reaction was confirmed by its NMR spectrum.

Data set [5] deals with xanthine oxidase from bovine milk. Kind of data set: Enzyme studies: rate of oxidation by xanthine oxidase from bovine milk. In kind it is biochemical. From the text:
The discovery that the 6-hydrogen purine of formula (I) above can be readily converted into its corresponding 6-hydroxy analogue is surprising since in previous studies with xanthine oxidase from bovine milk (H. Lettre et al. (1967) Biochem. Pharmacol., 16, 1747-1755; T. A. Krenitsky et al. (1972) Arch. Biophys., 150, 585-599) it was shown that 9-substitution obliterates or greatly diminishes the rate at which a variety of purines are oxidized.

Data set [6] in a line: Oral absorption and acyclovir blood/plasma levels in rats. Format: in vivo. Here is the method: The following experiments were carried out to determine the urinary excretion and plasma levels of acyclovir after oral dosing of rats with acyclovir, 6-deoxyacyclovir and the 6-amino analogue thereof i.e. 2,6-diamino-9-(2-hydroxyethoxymethyl)purine, hereinafter referred to as aminoacyclovir.
Long Evans male rats were dosed by intragastric needle with the drug and placed in metabolic cages which separated urine from feces. The collected urine and plasma samples were analyzed for acyclovir content by a radioimmunoassay (Quinn, R. P., et al., Anal. Biochem., 98, 319 (1979)).

Data set [7] deals with xanthine oxidase/dehydrogenase or aldehyde oxidase. From the text: (§1) It is thus possible to synthesize acyclovir in the body (i.e. in vivo) by administering 6-deoxyacyclovir to mammals including humans wherein the 6-deoxyacyclovir is acted upon by xanthine oxidase/dehydrogenase or aldehyde oxidase in the body and is thereby converted into acyclovir. […] Oxygen or other appropriate electron acceptors such as ferricyanide ion or methylene blue may serve as the oxidizing agent. Microorganisms which contain or produce xanthine oxidase/dehydrogenase may be used to effect the conversion of 6-deoxyacyclovir to acyclovir.

For data set [8] the test system is unchanged. Kind of data set: Ex vivo (in vitro) enzymatic oxidation to acyclovir. In kind it is biochemical.
Source text: as §1

In the next data set the test system is Beagle dogs. As to the kind of experiment: Toxicity study in Beagle dogs, per os. Format: in vivo. The settings on record: 40 mg/kg/day, once daily 5 days. Here is the method:
Two male and 2 female Beagle dogs were given 6-deoxyacyclovir per os (once daily for 5 consecutive days) at a dose level of 40 mg/kg/day. There were no effects in 1 male and 1 female sacrificed at the end of the treatment period or in 1 male and 1 female sacrificed after a 2 week post-dose period.

Molecules are shown by their SMILES. Converted amounts (≈) assume the structure as drawn.

Turning to `Nc1nc(N)c2ncn(COCCO)c2n1` [aminoacyclovir, 2,6-diamino-9-(2-hydroxyethoxymethyl)purine], the “conversion to acyclovir in vivo” value in the data set with adenosine deaminase was “depends on adenosine deaminase for conversion to acyclovir in vivo”.

As for `Nc1nc2c(ncn2COCCO)c(=O)[nH]1` [acyclovir, 9-(2-hydroxyethoxymethyl)guanine], in [1], the solubility in water came out at 1250 µg/mL (≈ 5.55 mM). Moreover, in [2] (herpes viruses such as herpes simplex), the “activity against herpes viruses” value is listed as “particularly good activity against herpes viruses”. The “effectiveness upon topical or parenteral administration” value in data set [2] (topical or parenteral) is reported as “especially effective upon topical or parenteral administration”. The “absorption upon oral administration” value in data set [3] is recorded as “only moderately well absorbed upon oral administration”.

On to `Nc1ncc2ncn(COCCO)c2n1` [6-deoxyacyclovir, 2-Amino-9-(2-hydroxyethoxymethyl)purine], for which the conversion to acyclovir result in [4] was “nearly complete conversion to acyclovir”. Besides, the “rate of oxidation relative to the 9-unsubstituted purine” value in data set [5] is given as “at a faster rate than the 9-unsubstituted purine”. Also, the “blood levels of acyclovir compared with oral acyclovir itself” value in data set [6] is “higher blood levels of acyclovir are obtainable with 6-deoxyacyclovir than with acyclovir itself”. In [6] (rats), the “absorption from the gastro-intestinal tract and plasma levels of acyclovir” value was “efficient absorption from the gastro-intestinal tract and high plasma levels of the corresponding acyclovir”. The “conversion in vivo into acyclovir” value in data set [7] was “readily converted in vivo”. For the same molecule, in data set [8], the “ex vivo (in vitro) enzymatic oxidation to acyclovir” value is listed as “demonstrated that acyclovir may be synthesized”. Also, the “effects in toxicity study” value in the data set with Beagle dogs (after 2 week post-dose period) and in the data set on Beagle dogs (end of treatment) was “no effects” each time.
